EP4603105A1, “PHARMACEUTICAL COMPOSITION CONTAINING CYCLIC COMPOUND HAVING SELECTIVE KRAS INHIBITORY EFFECT AGAINST HRAS AND NRAS” (CHUGAI SEIYAKU KABUSHIKI KAISHA, priority 2022, dated 2024)

Experiments:
[1] = biological target: GDP-bound KRAS wild-type protein (Homo sapiens, UniProt P01116); assay: Binding to KRAS by surface plasmon resonance (SPR), dissociation constant KD; details: Single Cycle Kinetics
Method in brief: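 Recombinant RAS proteins bearing a biotinylated Avi tag and loaded with GDP served as the captured ligand, recaptured fresh every cycle. Binding responses were referenced to an uncoated surface and a buffer-only blank cycle. Dissociation constants were obtained by 1:1 model fitting at 30°C.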

[2] = biological target: GDP-bound NRAS wild-type protein (Homo sapiens, UniProt P01111); assay: Binding to NRAS by surface plasmon resonance (SPR), KD and KD ratio to KRAS; details: ratio of KD for GDP-bound NRAS wild-type protein to KD for KRAS
Method in brief: (§1)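 Measured at 30°C: SPR with GDP-loaded, E. coli-expressed biotin-Avi RAS captured (~100–300 RU), ascending 75 s compound injections, HBS pH 7.4 with GDP, MgCl2, 4% DMSO. KD from 1:1 fit.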

HRAS wild-type protein = HRAS wild-type protein (Homo sapiens, UniProt P01112); assay: Binding to HRAS by surface plasmon resonance (SPR), KD and KD ratio to KRAS; details: ratio of KD for HRAS wild-type protein to KD for KRAS
Method in brief: as §1

[3] = system: human lung cancer strain NCI-H441; assay: NCI-H441 cell proliferation inhibitory activity (CellTiter-Glo, 4 days); format: cell-based; details: NCI-H441 cells, 4 days, read-out: NCl-H441 IC50
Method in brief: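 Signal came from […] measured per well once the reagent was added. Beforehand, cells were cultured at 37°C and 5% carbon dioxide on a compound series serially diluted in dimethyl sulfoxide.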

Sequence of HRAS wild-type protein (P01112 whole entry): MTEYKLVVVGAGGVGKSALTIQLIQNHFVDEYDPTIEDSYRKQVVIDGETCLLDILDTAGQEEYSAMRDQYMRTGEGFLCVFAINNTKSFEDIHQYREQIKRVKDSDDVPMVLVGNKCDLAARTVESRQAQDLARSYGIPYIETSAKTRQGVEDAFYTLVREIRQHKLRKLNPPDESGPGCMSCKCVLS
Sequence of GDP-bound NRAS wild-type protein (P01111 whole entry): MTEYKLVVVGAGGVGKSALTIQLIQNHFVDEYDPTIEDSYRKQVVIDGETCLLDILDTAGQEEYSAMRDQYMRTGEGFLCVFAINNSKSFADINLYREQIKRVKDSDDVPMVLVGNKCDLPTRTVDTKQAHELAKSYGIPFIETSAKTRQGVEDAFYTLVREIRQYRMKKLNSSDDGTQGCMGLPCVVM
Sequence of GDP-bound KRAS wild-type protein (P01116 1-188 isoform P01116-2): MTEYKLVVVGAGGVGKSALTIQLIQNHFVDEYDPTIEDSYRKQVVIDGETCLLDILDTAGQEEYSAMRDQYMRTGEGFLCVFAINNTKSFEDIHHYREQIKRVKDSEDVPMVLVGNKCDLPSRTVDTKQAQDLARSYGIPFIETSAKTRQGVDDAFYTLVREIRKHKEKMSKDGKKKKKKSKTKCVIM

SMILES	Kd [1] [nM]	IC50 [3] [nM]	NRAS /KRAS [2]	HRAS /KRAS (HRAS wild-type protein)
C#CC[C@H]1C(=O)N[C@@H]([C@@H](C)CC)C(=O)N2CCC[C@H]2C(=O)N(C)[C@H]2C/C=C\CCN(C2=O)[C@@H](Cc2ccc(C(F)(F)F)cc2)C(=O)N(C)CC(=O)N[C@@H](CCc2ccc(C(F)(F)F)c(OC)c2)C(=O)N2C[C@H](OCC)C[C@H]2C(=O)OC2(CCC2)C(=O)N(C)[C@@H](C2CCCC2)C(=O)N(C)[C@H](C(=O)N(C)C)CC(=O)N1C [PP3371]	0.33	5.4	A (a compound having 10 or more and less than 20 is denoted as A)	A (a compound having 10 or more and less than 20 is denoted as A)
C#CC[C@H]1C(=O)N[C@@H]([C@@H](C)CC)C(=O)N(C2CC2)CC(=O)N(C)[C@H]2C/C=C\CCN(C2=O)[C@@H](Cc2ccc(C(F)(F)F)cc2)C(=O)N(C)CC(=O)N[C@@H](CCc2ccc(C(F)(F)F)c(OC)c2)C(=O)N2C[C@H](OCC)C[C@H]2C(=O)OC2(CCC2)C(=O)N(C)[C@@H](C2CCCC2)C(=O)N(C)[C@H](C(=O)N(C)C)CC(=O)N1C [PP3372]	1.5	16.8	A (a compound having 10 or more and less than 20 is denoted as A)	B (a compound having 3 or more and less than 10 is denoted as B)
CCO[C@@H]1C[C@H]2C(=O)OC3(CCC3)C(=O)N(C)[C@@H](C3CCCC3)C(=O)N(C)[C@H](C(=O)N(C)C)CC(=O)N(C)[C@@H]([C@@H](C)OC)C(=O)N[C@@H]([C@@H](C)CC)C(=O)N(C3CC3)CC(=O)N(C)[C@H]3C/C=C\CCN(C3=O)[C@@H](Cc3ccc(C(F)(F)F)cc3)C(=O)N(C)CC(=O)N[C@@H](CCc3ccc(C(F)(F)F)c(OC)c3)C(=O)N2C1 [PP3375]	0.41	6	A (a compound having 10 or more and less than 20 is denoted as A)	B (a compound having 3 or more and less than 10 is denoted as B)
CCO[C@@H]1C[C@H]2C(=O)OC3(CCC3)C(=O)N(C)[C@@H](C3CCCC3)C(=O)N(C)[C@H](C(=O)N(C)C)CC(=O)N(C)[C@@H]([C@H](C)OC)C(=O)N[C@@H]([C@@H](C)CC)C(=O)N3CCC[C@H]3C(=O)N(C)[C@H]3C/C=C\CCN(C3=O)[C@@H](Cc3ccc(C(F)(F)F)cc3)C(=O)N(C)CC(=O)N[C@@H](CCc3ccc(C(F)(F)F)c(OC)c3)C(=O)N2C1 [PP3377]	0.53	11.3	A (a compound having 10 or more and less than 20 is denoted as A)	A (a compound having 10 or more and less than 20 is denoted as A)
CCO[C@@H]1C[C@H]2C(=O)OC3(CCC3)C(=O)N(C)[C@@H](C3CCCC3)C(=O)N(C)[C@H](C(=O)N(C)C)CC(=O)N(C)[C@@H]([C@H](C)OC)C(=O)N[C@@H]([C@@H](C)CC)C(=O)N(C3CC3)CC(=O)N(C)[C@H]3C/C=C\CCN(C3=O)[C@@H](Cc3ccc(C(F)(F)F)cc3)C(=O)N(C)CC(=O)N[C@@H](CCc3ccc(C(F)(F)F)c(OC)c3)C(=O)N2C1 [PP3378]	1.3	11.6	A (a compound having 10 or more and less than 20 is denoted as A)	A (a compound having 10 or more and less than 20 is denoted as A)
CCO[C@@H]1C[C@H]2C(=O)OC3(CCC3)C(=O)N(C)[C@@H](C3CCCC3)C(=O)N(C)[C@H](C(=O)N(C)C)CC(=O)N(C)[C@@H](CC(C)C)C(=O)N[C@@H]([C@@H](C)CC)C(=O)N3CCC[C@H]3C(=O)N(C)[C@H]3C/C=C\CCN(C3=O)[C@@H](Cc3ccc(C)cc3)C(=O)N(C)CC(=O)N[C@@H](CCc3ccc(C(F)(F)F)c(OC)c3)C(=O)N2C1 [PP3380]	1.3	28.9	A (a compound having 10 or more and less than 20 is denoted as A)	B (a compound having 3 or more and less than 10 is denoted as B)
CCO[C@@H]1C[C@H]2C(=O)OC3(CCC3)C(=O)N(C)[C@@H](C3CCCC3)C(=O)N(C)[C@H](C(=O)N(C)C)CC(=O)N(C)[C@@H](CC(C)C)C(=O)N[C@@H]([C@@H](C)CC)C(=O)N(C3CC3)CC(=O)N(C)[C@H]3C/C=C\CCN(C3=O)[C@@H](Cc3ccc(C)cc3)C(=O)N(C)CC(=O)N[C@@H](CCc3ccc(C(F)(F)F)c(OC)c3)C(=O)N2C1 [PP3381]	1.1	18.7	A (a compound having 10 or more and less than 20 is denoted as A)	A (a compound having 10 or more and less than 20 is denoted as A)
CCCC[C@H]1C(=O)N[C@@H]([C@@H](C)CC)C(=O)N2CCC[C@H]2C(=O)N(C)[C@H]2C/C=C\CCN(C2=O)[C@@H](Cc2ccc(C)cc2)C(=O)N(C)CC(=O)N[C@@H](CCc2ccc(C(F)(F)F)c(OC)c2)C(=O)N2C[C@H](OCC)C[C@H]2C(=O)OC2(CCC2)C(=O)N(C)[C@@H](C2CCCC2)C(=O)N(C)[C@H](C(=O)N(C)C)CC(=O)N1C [PP3383]	0.74	17.5	A (a compound having 10 or more and less than 20 is denoted as A)	A (a compound having 10 or more and less than 20 is denoted as A)
CCCC[C@H]1C(=O)N[C@@H]([C@@H](C)CC)C(=O)N(C2CC2)CC(=O)N(C)[C@H]2C/C=C\CCN(C2=O)[C@@H](Cc2ccc(C)cc2)C(=O)N(C)CC(=O)N[C@@H](CCc2ccc(C(F)(F)F)c(OC)c2)C(=O)N2C[C@H](OCC)C[C@H]2C(=O)OC2(CCC2)C(=O)N(C)[C@@H](C2CCCC2)C(=O)N(C)[C@H](C(=O)N(C)C)CC(=O)N1C [PP3384]	1.2	18.2	A (a compound having 10 or more and less than 20 is denoted as A)	B (a compound having 3 or more and less than 10 is denoted as B)
CCC[C@H]1C(=O)N[C@@H]([C@@H](C)CC)C(=O)N2CCC[C@H]2C(=O)N(C)[C@H]2C/C=C\CCN(C2=O)[C@@H](Cc2ccc(C)cc2)C(=O)N(C)CC(=O)N[C@@H](CCc2ccc(C(F)(F)F)c(OC)c2)C(=O)N2C[C@H](OCC)C[C@H]2C(=O)OC2(CCC2)C(=O)N(C)[C@@H](C2CCCC2)C(=O)N(C)[C@H](C(=O)N(C)C)CC(=O)N1C [PP3386]	0.66	10.6	A (a compound having 10 or more and less than 20 is denoted as A)	B (a compound having 3 or more and less than 10 is denoted as B)

Stronger by Kd [1], values ahead:

Kd [1] [nM]	IC50 [3] [nM]	SMILES	NRAS /KRAS [2]	HRAS /KRAS (HRAS wild-type protein)
0.24	9.5	CCO[C@@H]1C[C@H]2C(=O)OC3(CCC3)C(=O)N(C)[C@@H](C3CCCC3)C(=O)N(C)[C@H](C(=O)N(C)C)CC(=O)N(C)[C@@H]([C@H](C)OC)C(=O)N[C@@H]([C@@H](C)CC)C(=O)N(C)CC(=O)N(C)[C@H]3C/C=C\CCN(C3=O)[C@@H](Cc3ccc(C(F)(F)F)cc3)C(=O)N(C)CC(=O)N[C@@H](CCc3ccc(C(F)(F)F)c(OC)c3)C(=O)N2C1 [PP3379]	A (a compound having 10 or more and less than 20 is denoted as A)	B (a compound having 3 or more and less than 10 is denoted as B)
0.22	8.1	CCCC[C@H]1C(=O)N[C@@H]([C@@H](C)CC)C(=O)N(C)CC(=O)N(C)[C@H]2C/C=C\CCN(C2=O)[C@@H](Cc2ccc(C)cc2)C(=O)N(C)CC(=O)N[C@@H](CCc2ccc(C(F)(F)F)c(OC)c2)C(=O)N2C[C@H](OCC)C[C@H]2C(=O)OC2(CCC2)C(=O)N(C)[C@@H](C2CCCC2)C(=O)N(C)[C@H](C(=O)N(C)C)CC(=O)N1C [PP3385]	A (a compound having 10 or more and less than 20 is denoted as A)	B (a compound having 3 or more and less than 10 is denoted as B)
0.21	12.5	C#CC[C@H]1C(=O)N[C@@H]([C@@H](C)CC)C(=O)N(C)CC(=O)N(C)[C@H]2C/C=C\CCN(C2=O)[C@@H](Cc2ccc(C(F)(F)F)cc2)C(=O)N(C)CC(=O)N[C@@H](CCc2ccc(C(F)(F)F)c(OC)c2)C(=O)N2C[C@H](OCC)C[C@H]2C(=O)OC2(CCC2)C(=O)N(C)[C@@H](C2CCCC2)C(=O)N(C)[C@H](C(=O)N(C)C)CC(=O)N1C [PP3373]	A (a compound having 10 or more and less than 20 is denoted as A)	A (a compound having 10 or more and less than 20 is denoted as A)
0.2	5.2	CCO[C@@H]1C[C@H]2C(=O)OC3(CCC3)C(=O)N(C)[C@@H](C3CCCC3)C(=O)N(C)[C@H](C(=O)N(C)C)CC(=O)N(C)[C@@H](CC(C)C)C(=O)N[C@@H]([C@@H](C)CC)C(=O)N(C)CC(=O)N(C)[C@H]3C/C=C\CCN(C3=O)[C@@H](Cc3ccc(C)cc3)C(=O)N(C)CC(=O)N[C@@H](CCc3ccc(C(F)(F)F)c(OC)c3)C(=O)N2C1 [PP3382]	A (a compound having 10 or more and less than 20 is denoted as A)	B (a compound having 3 or more and less than 10 is denoted as B)
